Experiments:
[1] = system: Male C57BL/6 mice on high-fat diet; assay: Insulin tolerance testing in mice; assay type: in vivo, mouse; conditions: mice fasted 3 hours, 1.2 U/kg insulin, 0-120 min; FIG. 13
Method: (§1) Male C57BL/6 mice (8 weeks old) were purchased from the National Laboratory Animal Center. Mice were divided into three groups (n=6 each group): chow diet; high-fat diet (HFD, 60% ResearchDiet, D12492); and HFD gavage with corylin at 100 mg/kg. To compare the metabolic effects of corylin, parameters such as body weights, liver weights and white adipocytes tissue (WAT) weights from epididymal, inguinal and axilla subcutaneous were measured at the end of the treatment. […] For intraperitoneal glucose tolerance testing, mice were fasted for 16 hours and then injected with 2 g/kg of glucose solution. For insulin tolerance testing, mice were fasted for 3 hours and then injected with 1.2 U/kg insulin. Serum blood glucose levels were measured at 0, 15, 30, 60, 90, and 120 min after glucose and insulin injection.

ICAM-1 expression = assay: Lipopolysaccharide-induced ICAM-1 expression by Western blotting in HASMC; assay type: cell-based, human; conditions: corylin 24 hours then lipopolysaccharide 24 hours, FIG. 8
Method: Lipopolysaccharide can induce immune response on blood vessels. During immune response, blood vessels can also overexpress ICAM-1, which is one cause of cardiovascular disease. To mimic this disease, human aortic smooth muscle cells (HASMC) were treated with corylin in different concentrations and then cultured for 24 hours. After these cells were treated with lipopolysaccharide for 24 hours, the protein in these cells was extracted and analyzed by Western blotting assay.

S6K phosphorylation = S6K phosphorylation by Western blotting in U2OS cells; assay type: cell-based, human; conditions: 8 hours
Method: Human osteosarcoma (U2OS) cells were treated with different chemicals in different concentrations. After the cells were cultured for 8 hours, the protein therein was extracted. Finally, Western blotting assay was used to analyze the extracted protein. […] Moreover, human osteosarcoma cells were pre-treated with mammalian SIRT1 inhibitor EX-527 for 1 hour. Afterwards, those cells were treated with 100 μM corylin and cultured for 8 hours. Finally, Western blotting assay was used to analyze the protein extracted from those cells.

[2] = system: Male C57BL/6 mice on high-fat diet; assay: High-fat diet mice: body, liver and white adipocytes tissue weights; assay type: in vivo, mouse; conditions: HFD mice, gavage 100 mg/kg, end of treatment
Method: Male C57BL/6 mice (8 weeks old) were purchased from the National Laboratory Animal Center. Mice were divided into three groups (n=6 each group): chow diet; high-fat diet (HFD, 60% ResearchDiet, D12492); and HFD gavage with corylin at 100 mg/kg. To compare the metabolic effects of corylin, parameters such as body weights, liver weights and white adipocytes tissue (WAT) weights from epididymal, inguinal and axilla subcutaneous were measured at the end of the treatment.

[3] = system: S6K phosphorylation caused by insulin; assay: Insulin-induced S6K phosphorylation by Western blotting; assay type: cell-based; conditions: human osteosarcoma cells, 400 nM insulin, 10 minutes; FIG. 7
Method: High concentration insulin can cause phosphorylation and thus cells are resistant to insulin, which is one cause for type II diabetes. In order to mimic type II diabetes, human osteosarcoma cells were cultured in 400 nM of insulin and different chemicals for 10 minutes. After which, Western blotting assay was used to analyze the protein in these cells.

[4] = system: Male C57BL/6 mice on high-fat diet; assay: Intraperitoneal glucose tolerance testing in mice; assay type: in vivo, mouse; conditions: mice fasted 16 hours, 2 g/kg glucose, 0-120 min; FIG. 12
Method: as §1

[5] = system: Mouse adipocytes (3T3-L1); assay: Adipocyte differentiation, oil-red O staining; assay type: cell-based; conditions: 3T3-L1 co-treated with DMI, 8 days, FIG. 6
Method: Mouse adipocytes (3T3-L1) were co-treated with DMI (5 μM of dexamethasone, 0.5 mM of 3-isobutyl-1-methylxanthine, and 0.1724 mM of insulin) and different chemicals. After being cultured for 8 days, the cell media was removed and oil-red O staining was used to analyze these adipocytes' differentiation.

yeast cells = assay: Replicative life span of yeast cells (passage number); assay type: cell-based; conditions: YEPD media, 30° C.; FIG. 2
Method: A yeast colony was selected and cultured in a YEPD culture media. When the OD value of the media was at 0.6-0.8, 20 μl of the media containing different chemicals was added to a YEPD solid media, and then 20-30 yeast cells were selected using a tetrad dissection microscope manipulation system. The selected yeast cells were cultured at 30° C. for 3-5 hours to divide into first generation yeast cells. Afterwards, the first generation yeast cells were cultured at 30° C. for 3-5 hours to divide into second generation yeast cells. The culturing step was repeated until final generation yeast cells which cannot divide anymore existed. Finally, the yeast cells' passage number was counted according to the total division number.

[6] = system: human umbilical vein endothelial cells (HUVEC); assay: SA-βgal cellular aging assay in HUVEC; assay type: cell-based; conditions: corylin in different concentrations, successive generations, FIG. 3
Method: In addition, human umbilical vein endothelial cells (HUVEC) were treated with corylin in different concentrations, and the cells at this moment were called first generation cells. Second generation cells grew by culturing the first generation cells for 2-3 days, and then the second generation cells were treated with corylin in different concentrations. Third to Nth generation cells grew by repeating the culturing process. During each culture process, SA-βgal assay was used to analyze the responding generation cells. The more SA-βgal positive cells the cultured cells contained, the older the cultured cells were.

Compound	insulin tolerance (serum blood glucose) [1]	ICAM-1 expression caused by lipopolysaccharide (ICAM-1 expression)	interference of SIRT1 inhibitor EX-527 with corylin's effect on S6K phosphorylation (S6K phosphorylation; U2OS cells pre-treated with EX-527 for 1 hour, then 100 μM corylin, FIG. 5)	S6K phosphorylation (S6K phosphorylation; U2OS cells, different concentrations, FIG. 4)	body weight ([2]; FIG. 9)	liver weight ([2]; FIG. 10)	S6K phosphorylation caused by insulin [3]	intraperitoneal glucose tolerance (serum blood glucose) [4]	inhibition of adipocytes' differentiation [5]	yeast cells' passage number (replicative life span) (yeast cells)	cells' aging (SA-βgal positive cells) [6]
corylin	can lower	can inhibit ICAM-1 expression caused by lipopolysaccharide	cannot interfere with the S6K phosphorylation caused by corylin	can suppress S6K phosphorylation in dose-dependent manner	has an effect on the reduction of body weight	has an effect on the reduction of	can suppress such phosphorylation caused by insulin	can lower intraperitoneal glucose tolerance	more obvious than that caused by resveratrol	can increase yeast cells' passage number	can inhibit the cells' aging in dose-dependent manner
Oc1ccc(C=Cc2cc(O)cc(O)c2)cc1 [resveratrol, reference compound]	–	–	–	–	–	–	–	–	inhibition of adipocytes' differentiation	–	–

— US9795588B2, “Mammalian TOR inhibitor” (Chang Gung University, priority 2016, dated 2017)
